Test results from a melting point compilation (Tetko et al.).

| melting point [°C] | Compound |
| --- | --- |
| 172 to 174 | COc1ccc(N2CCCNC(=O)C2)cc1 |
| 173 to 175 | O=C(NCCO)c1ccc([N+](=O)[O-])cc1Cl |
| 210 to 212 | N#Cc1n[nH]c2ccc(Cl)cc12 |
| 210 to 212 | NC(=O)CSc1ccccc1C(=O)O |
| 178 to 180 | O=C(O)CSc1cnc2ccccc2n1 |
| 118 to 120 | Cc1cc([N+](=O)[O-])ccc1NC(=O)CCl |
| 173 to 175 | O=c1cc(CCl)nc2ccccn12 |
| 139 to 141 | Cc1cc(C(=O)O)nn1-c1ccc(Cl)cc1 |
| 214 to 216 | COc1ccccc1-c1nnc(N)[nH]1 |
| 132 to 134 | O=C(c1ccc(Cl)nc1)N1CCc2ccccc21 |
| 123 to 125 | CN(C)c1nc(-c2ccccc2)c(C=O)s1 |
| 260 to 262 | O=C(O)c1[nH]nc(-c2ccccc2)c1Br |
| 206 to 208 | O=C(O)c1ccc(S(=O)(=O)Cl)c(Br)c1 |
| 55 to 58 | COC(=O)c1ccc(CC#N)cc1 |
| 68 to 70 | CC(=O)CCc1ccc(OC(C)C(=O)O)cc1 (stereo not drawn) |
| 153 to 155 | CC(C(=O)O)N(C)c1nccn2cnnc12 (stereo not drawn) |
| 70 to 72 | Fc1cccc(NC2CCOCC2)c1 |
| 189 to 191 | O=C(O)c1cccnc1Oc1ccc(F)cc1Br |
| 123 to 125 | O=S1(=O)Cc2ccccc2N1 |
| 221 to 223 | Cc1ccc(C(=O)O)cc1N1C(=O)C2CC=CCC2C1=O (stereo not drawn) |
| 158 to 160 | Nc1cc(-c2cc(Br)ccc2Cl)[nH]n1 |
| 283 to 285 | CN1CCC2(CC1)NC(=O)NC2=O |
| 187 to 189 | Nc1ccc(-c2nc3ccccc3s2)cn1 |
| 113 to 115 | CC(Oc1ccc(C(=O)O)cn1)c1ccccc1 (stereo not drawn) |

| melting point [°C] | Compound |
| --- | --- |
| 162 to 164 | Sc1nnc(-c2cccs2)o1 |
| 74 to 76 | CCC(=O)N1CSCC1C(=O)O (stereo not drawn) |
| 130 to 135 | CC(Cl)C(=O)Nc1ccc(S(=O)(=O)N2CCCCC2)cc1 (stereo not drawn) |
| 135 to 137 | CC(C)CC(C(=O)O)N1C(=O)C2CC=CCC2C1=O (stereo not drawn) |
| 51 to 53 | CC1C(O)CC2CC1C2(C)C (stereo not drawn) |
| 191 to 193 | NNc1nccc2sccc12 |
| 259 to 261 | Cc1ccc2ncc(C(=O)O)c(=O)n2c1 |
| 203 to 207 | CC1(c2ccc(Cl)c(Cl)c2)NC(=O)NC1=O (stereo not drawn) |
| 63 to 65 | OC(CC1CCCN1)c1cccs1 (stereo not drawn) |
| 187 to 189 | Sc1nncn1-c1cccc(Cl)c1 |
| 310 to 312 | O=C(O)c1ccc2c(c1)CC(c1ccccc1)OC2=O (stereo not drawn) |
| 49 to 51 | NCc1cnn(-c2ccc(F)cc2F)c1 |
| 136 to 138 | Cc1nc(C(=O)N(C)C)ccc1C(=O)O |
| 185 to 187 | O=C(O)c1cc(-c2ccc(Cl)cc2)on1 |
| 107 to 109 | Cc1noc(C)c1COc1ccc(C=O)cc1 |
| 172 to 174 | Cc1noc(C)c1COc1ccccc1C(=O)O |
| 249 to 251 | Nc1nc(=O)cn[nH]1 |
| 89 to 91 | O=[N+]([O-])c1ccc(CCS(=O)(=O)Cl)cc1 |
| 171 to 173 | NC(=O)C(N)C(N)=O |
| 95 to 97 | CC(C)(C)Cc1cc(N)n(-c2ccccc2)n1 |
| 175 to 177 | CC(C)c1cnc(S)n1C1CC1 |
| 161 to 163 | Fc1cc2nc(Cl)ccc2cc1Br |
| 70 to 72 | Cn1ccnc1C(=O)c1ccc(N)cc1 |
| 186 to 188 | CS(=O)(=O)Cc1ccc(C(=O)O)o1 |

| melting point [°C] | Compound |
| --- | --- |
| 161 to 163 | CCOC(=O)C1CN(Cc2ccccc2)CCC1=O (stereo not drawn) |
| 85 to 87 | FC(F)c1nc(Cl)c2ccccc2n1 |
| 231 to 233 | O=C(O)C1CCCN(C(=O)c2c[nH]c3ccccc23)C1 (stereo not drawn) |
| 121 to 123 | CS(=O)(=O)Cc1cccc(N)c1 |
| 104 to 106 | Cc1n[nH]cc1C=O |
| 143 to 145 | O=C(O)c1sccc1S(=O)(=O)N1CCC(CO)CC1 |
| 262 to 264 | O=C(O)c1cn(-c2ccccc2)nc1-c1ccc(Br)cc1 |
| 154 to 156 | Oc1ccc(C2SCCCS2)cc1 |
| 139 to 141 | Cc1ccc(S(N)(=O)=O)c(C)c1 |
| 176 to 178 | O=C(O)Cc1cc(Cl)c2c(c1)OCCO2 |
| 202 to 204 | CC1CC(C(F)(F)F)c2c(n(C)[nH]c2=O)N1 (stereo not drawn) |
| 144 to 146 | COC(=O)c1cc2c(C)c(C)ccc2[nH]1 |
| 127 to 129 | O=C(Nc1cc(Cl)ccc1Cl)C1CCCCN1 (stereo not drawn) |
| 108 to 110 | CC1(C)CCC(C#N)=C1N |
| 205 to 208 | COc1ccc(N2C(=O)CCC(C(=O)O)C2c2ccccc2OC)cc1 (stereo not drawn) |
| 223 to 225 | O=C(O)c1ccc(F)c(S(=O)(=O)N2CCCC2)c1 |
| 34 to 36 | O=S(=O)(Cl)N1CCCC2CCCCC21 (stereo not drawn) |
| 129 to 131 | O=C(O)CN(C(=O)c1ccc(Br)o1)c1ccccc1 |
| 201 to 203 | CC(Sc1ccnc2cc(Cl)ccc12)C(=O)O (stereo not drawn) |
| 139 to 141 | Nc1cc(N2CCCC2=O)ccc1Cl |
| 248 to 250 | Nc1nc(-c2nc3ccccc3s2)cs1 |
| 202 to 204 | O=C(O)C1CSC2(c3ccc(F)cc3)CCC(=O)N12 (stereo not drawn) |
| 229 to 231 | O=c1[nH]c2cc([N+](=O)[O-])ccc2o1 |
| 216 to 218 | COc1ccc(CCc2nnc(N)o2)cc1 |

| melting point [°C] | Compound |
| --- | --- |
| 125 to 127 | O=C(O)CCCOc1cccnc1 |
| 176 to 178 | N#Cc1c(NC(=O)CCl)sc2c1CCC2 |
| 85 to 87 | NCC(=O)Nc1ccc(F)cc1 |
| 157 to 159 | O=C(O)CCc1ccc(S(=O)(=O)Cl)cc1 |
| 288 to 290 | Cn1c(C(=O)O)cc2c(=O)n3ccccc3nc21 |
| 104 to 106 | O=C(c1ccccc1F)N1CCC(O)CC1 |
| 104 to 106 | CCN1C(=O)C(=O)c2cc(C)ccc21 |
| 34 to 36 | CC(C(=O)O)C(C)(C)C (stereo not drawn) |
| 79 to 81 | O=Cc1ccc(-c2ccc(F)cc2)o1 |
| 52 to 54 | CS(=O)(=O)N1CCCC1C(=O)O (stereo not drawn) |
| 134 to 136 | O=C(O)C=C(C1CC1)C1CC1 |
| 179 to 181 | O=C(O)c1ccc(-n2cnnn2)cc1Cl |
| 119 to 121 | CCS(=O)(=O)c1ccc(CCC(=O)O)cc1 |
| 99 to 101 | COC(=O)C(C)Nc1ccc([N+](=O)[O-])cc1 (stereo not drawn) |
| 70 to 72 | O=[N+]([O-])c1ccc(S(=O)(=O)Cl)c(Br)c1 |
| 131 to 135 | O=C(O)CCc1c(-c2ccc(F)cc2)[nH]c2ccc(F)cc12 |
| 133 to 135 | CC(C)c1ncc(C(=O)O)s1 |
| 179 to 181 | CCCC(C(=O)O)N(C)C (stereo not drawn) |
| 90 to 92 | COC(=O)c1noc(C)c1C(=O)c1ccccc1 |
| 51 to 53 | Cc1cs/c(=N\c2ccccc2)n1C1CCCC1 |
| 31 to 33 | Clc1noc(-c2ccccc2)n1 |
| 66 to 68 | COc1ccc(C(=O)C(C)Br)cc1 (stereo not drawn) |
| 73 to 75 | CCNC(=O)c1ccc(N)cc1 |
| 234 to 236 | NS(=O)(=O)Cc1cccc(C(=O)O)c1 |

| melting point [°C] | Compound |
| --- | --- |
| 129 to 131 | COc1ncc(Br)cc1CC(=O)O |
| 276 to 278 | CN1CCN(S(=O)(=O)c2ccc(Cl)c([N+](=O)[O-])c2)CC1 |
| 145 to 147 | Cc1nc(-c2ccccc2)c(N)n1C |
| 123 to 125 | CCSCc1ccc(C(=O)O)cc1 |
| 67 to 69 | Oc1ccc(Cl)cc1C(F)(F)F |
| 145 to 147 | Cc1ccc(S(=O)(=O)N(CCC(=O)O)c2ccccc2)cc1 |
| 192 to 194 | O=C1C2C3C=CC(C3)C2C(=O)N1c1cccc(Br)c1 (stereo not drawn) |
| 120 to 122 | Nc1ccc(NC(=O)c2ccco2)cc1C(F)(F)F |
| 128 to 130 | Cc1cc(C(=O)N2CCCC(C)C2)ccc1N (stereo not drawn) |
| 261 to 263 | N#Cc1cccc(CNc2ccc3[nH]c(=O)[nH]c3c2)c1 |
| 103 to 105 | CCOCc1c(C(=O)O)oc2ccccc12 |
| 274 to 276 | O=C(O)c1ccc(-n2cncn2)c([N+](=O)[O-])c1 |
| 288 to 290 | CCCn1c(=O)[nH]c(=O)c2[nH]cnc21 |
| 133 to 137 | CNS(=O)(=O)c1cc(N)ccc1C |
| 164 to 166 | Cc1cc(C(=O)O)c(C)n1-c1ccccc1Br |
| 179 to 181 | CC(C)(c1cc(N)on1)S(C)(=O)=O |
| 225 to 227 | O=c1[nH]c(-c2cccnc2)cs1 |
| 159 to 161 | CCOC(=O)c1cnn2c1NCCC2 |
| 88 to 90 | CNS(=O)(=O)N1CCc2ccccc2C1 |
| 93 to 95 | CNCC(O)COc1ccc2c(c1)OCO2 (stereo not drawn) |
| 31 to 33 | CCCOc1c(Cl)cc(C#N)cc1OC |
| 190 to 192 | CC(=O)Nc1cc2ccccc2cc1C(=O)O |
| 309 to 311 | CNC1(C(=O)O)CCCCC1 |
| 51 to 53 | O=C1NCCS1 |

| melting point [°C] | Compound |
| --- | --- |
| 39 to 41 | CC(C)Oc1ccc(N)cc1C#N |
| 89 to 91 | O=C(O)Cc1cc2ccccc2o1 |
| 202 to 204 | O=C(O)Cc1csc(-c2ccc(F)c(F)c2)n1 |
| 96 to 98 | O=C(O)c1cccc(Oc2cccc(Cl)c2)n1 |
| 215 to 217 | CC(C)CC1NC(=O)NC1=O (stereo not drawn) |
| 195 to 197 | CCn1c(=O)c2ccccc2n2c(CCl)nnc12 |
| 32 to 34 | CCOC(=O)c1noc(C)n1 |
| 272 to 274 | O=C(O)c1ccc(S(=O)(=O)N2CCc3ccccc3C2)cc1 |
| 105 to 107 | NNS(=O)(=O)c1ccc(OC(F)(F)F)cc1 |
| 147 to 149 | NC(=S)C1CN(C(=O)OCc2ccccc2)CCO1 (stereo not drawn) |
| 140 to 142 | NNC(=O)c1cccc(S(=O)(=O)N2CCOCC2)c1 |
| 61 to 63 | CCOC(C)c1nc(C(=O)O)cs1 (stereo not drawn) |
| 165 to 167 | O=C(O)c1csc(-c2ccsc2)n1 |
| 179 to 181 | COc1ccccc1C1(C)NC(=O)N(CC(=O)O)C1=O (stereo not drawn) |
| 124 to 126 | CC(=O)c1sc(-c2ccccc2Br)nc1C |
| 132 to 134 | Nc1ccc(Oc2ncccn2)cc1 |
| 95 to 97 | O=S(=O)(NCC1CC1)c1ccc(Cl)nc1 |
| 151 to 153 | Cn1cc(N2C(=O)C=CC2=O)cn1 |
| 253 to 255 | Cc1cc(Cl)cc2nc(S)oc12 |
| 104 to 107 | ClCc1nnc(-c2ccccc2Br)o1 |

| Compound | melting point [°C] |
| --- | --- |
| c1ccc2sc(C3CCNCC3)nc2c1 | 127 to 129 |
| Nc1cc(C(F)(F)F)ccc1C1CCNCC1 | 86 to 88 |
| C1=C(c2c[nH]c3ncccc23)CCNC1 | 181 to 183 |
